Measurements reported in paper PMC8559926, “Design, synthesis and biological evaluation of N-oxide derivatives with potent in vivo antileishmanial activity” (PLoS ONE, 2021).
Where “and” joins values, the source holds several entries; their conditions need not be identical. Equal values may be shown once. Read-outs that look alike come from different tables or passages of the source.

What was measured:
L. infantum [1] = assay: In vivo parasite load (LDU index) in L. infantum-infected BALB/c mice; conditions: oral, twice a day for five days; for reduction of parasite burden in liver and spleen: 7.7 mg/kg/day
Description: To evaluate the in vivo antileishmanial efficacy of compound 4f, male BALB/c mice, 20 ± 4 g, 6 weeks-old (CEMIB-UNICAMP) were intraperitoneally inoculated with 100 μL (1x10^8 parasites) of infective promastigotes of L. infantum (MHOM/MA/67/ITMAP-263) at the stationary phase. After nine days post-infection, the animals were treated by oral gavage (100 μL per dose) twice daily for 5 days with a 12h interval between doses according to the dosages described below, and euthanized. […] Work solutions were daily prepared in PBS. Negative controls correspond to infected and non-treated mice. As a positive control, a group of mice received 7.7 mg/kg/day of miltefosine, and a group of uninfected and untreated mice (healthy animals) was used for the analysis. The compound and miltefosine were orally administered twice a day for five days. After treatment, the animals were euthanized and the treatment efficacy was assessed by measuring the parasite burden of the infected animals using the LDU index.
LDU index. After the euthanasia, mice´s liver and spleen were collected for parasite quantification. Tissues impression onto microscopy slides were made, followed by Giemsa-staining and examining under optical microscopy. The corresponding number of amastigotes per 1,000 nucleated cells/organ weight was expressed as LDU index according to Stauber (1958), Sousa-Batista (2018), and Kwofie (2019).

[2] = biological target: T1, recombinant Leishmania cysteine protease LmCPB2.8ΔCTE (CPB) (Leishmania mexicana, UniProt P36400); assay: Enzymatic inhibition of recombinant CPB (Z-FR-AMC substrate); type: biochemical
T1 construct: The ORF that codes for the Leishmania mexicana CPB, lacking the C terminal extension (CPB2.8ΔCTE); made in house; host or cells: Pichia pastoris X-33
Description: The concentration of the active recombinant CPB expressed in Pichia pastoris supernatant was determined by active site titration with N-(trans-Epoxysuccinyl)-L-leucine 4-guanidinobutylamide E-64 (CalBiochem) that was found 1 μM. The active enzyme represented about 80% of the total recombinant enzyme.
Compounds were dissolved in DMSO to a final concentration of 20 μM. The assays were performed in dark 96 well-plates, containing 200 μL of 100 mM sodium acetate buffer (pH 5.5), 200 mM NaCl, 0.01% Triton-X100, 2 nM enzyme, various concentrations of inhibitor, and 5 μM of the substrate Z-FR-AMC (Calbiochem). The final concentration of DMSO was 1% (v/v). The enzyme was pre-incubated at 30°C for 2 minutes before the inhibitor was added, waited 2 minutes and after this incubation, the reaction was started by the addition of the substrate, Z-FR-AMC. The fluorescence was monitored at 380 nm excitation and 460 nm emission filters for 2 minutes at 30°C in an Infinite 200 PRO microplate reader (Tecan, Männedorf, Switzerland). The residual activity was measured by the ratio between enzyme + substrate and enzyme + inhibitor + substrate. […] Results were expressed in mean ± standard deviation of two independent replicates using Bioestat Software.

[3] = Quantification of nitrite by the Griess reaction (NO release); conditions: compounds at 10^-4 M, 5 mM of L-Cys (1:50), 1 h, 37°C
Description: The levels of nitrite resulting from the oxidation of NO in the aqueous medium were quantified through the Griess reaction after incubation with an excess of L-cysteine (1:50) according to previously published methods. The experiments were performed in triplicate and repeated three times on different days. […] The results were expressed as a percentage of nitrite (% NO2^−; mol/mol). Statistical analysis was carried out using ANOVA followed by Tukey’s Multiple Comparison Test at a significance level of p < 0.05.
The ability of all synthesized compounds (4a-x) and (14a-g) to release NO was evaluated by indirect determination of NO2^− production. The compounds at 10^−4 M were incubated for 1 h at 37°C in the presence of L-cysteine (1:50) and the produced NO2^− was determined through Griess reaction (Table 1).

[4] = Toxicity for mice: plasma biochemical markers; type: in vivo, BALB/c mice; conditions: for plasma creatinine: any group; for plasma creatinine / plasma total bilirubin levels: end of treatment; for plasma levels of AST, ALP, ALT, and creatinine: treated vs healthy groups; for plasma total bilirubin levels: treated vs infected untreated mice
Description: Toxicity for mice assays. The blood was collected in heparinized tubes and immediately centrifuged at 700×g for 10 min at 25°C to obtain plasma. Plasma levels of aspartate (AST), and alanine (ALT) transferases, alkaline phosphatase (ALP), creatinine, urea, and total bilirubin were determined at the end of treatment using commercial kits (Labtest Diagnóstica S.A., Brazil). The assays were performed according to Velasquez et al. (2017) and the data are expressed as average ± SEM. The statistical differences between groups were evaluated using a one-way analysis of variance, followed by the Student-Newman-Keuls multiple comparison test using GraphPad Prism software. Differences were considered significant when P values were […].

[5] = system: L. infantum intracellular amastigotes; assay: Anti-amastigote activity in infected murine peritoneal macrophages; type: cell-based; conditions: Leishmania infantum, Peritoneal macrophage, 24 h, read-out: EC50 - Effective Concentration that kills 50% of L. infantum amastigote forms
Description: The antileishmanial activity against L. infantum intracellular amastigotes, according to the following methodology. […] Were used infected macrophages as negative control and amphotericin B as the positive control.
After incubation, cells were fixed with methanol and Giemsa stained. The effective concentration to 50% amastigotes death (EC) was obtained by counting 100 macrophages in duplicate, in two independent experiments. The values were obtained by non-linear regression on Bioestat® software, and results were expressed in mean ± standard deviation.

[6] = system: murine peritoneal macrophages; set-up: method as in PMID 24913171; conditions: prototype/reference compounds; cited from earlier work
L. infantum [7] = system: L. infantum; set-up: method as in PMID 28866421; conditions: L. infantum-infected hamsters, cited from earlier work
[8] = biological target: T1, recombinant Leishmania cysteine protease LmCPB2.8ΔCTE (CPB); conditions: read-out: IC50 - Inhibition of CPB (rCPB2.8); prototype/reference compounds; cited from earlier work
[9] = system: L. infantum intracellular amastigotes; set-up: method as in PMID 24913171; conditions: prototype/reference compounds, cited from earlier work

T1 sequence (P36400 126-341, stated change not applied): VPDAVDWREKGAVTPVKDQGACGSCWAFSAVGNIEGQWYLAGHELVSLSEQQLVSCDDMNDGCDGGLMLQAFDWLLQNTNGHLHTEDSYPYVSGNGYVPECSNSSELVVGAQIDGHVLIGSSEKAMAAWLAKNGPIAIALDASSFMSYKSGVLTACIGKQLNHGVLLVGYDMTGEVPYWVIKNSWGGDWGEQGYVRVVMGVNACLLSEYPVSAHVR

NC(=O)N/N=C/c1ccc(Oc2no[n+]([O-])c2-c2ccccc2)cc1 [Compound 4f, (E)-4-(4-((2-carbamoylhydrazono)methyl)phenoxy)-3-phenyl-1,2,5-oxadiazole 2-oxide]
parasite reduction (L. infantum [1]; 2.56 mg/kg/day): 77%
reduction of parasite burden in liver and spleen (L. infantum [1]): 90% and ~ 90%
IC50 [2]: 4.5 ± 0.1 µM
% NO2- (mol/mol) [3]: 9.1 ± 0.7 %
plasma creatinine [4]: no alterations
plasma levels of AST, ALP, ALT, and creatinine [4]: similar
plasma total bilirubin levels [4]: no significant alterations
side effect (biochemical markers) ([4]; up to the highest dose 7.7 mg/kg/day): without causing any evident side effect
EC50 [5]: 3.6 ± 0.1 µM

NC(=O)c1c(COc2ccc(/C=N/NC(=O)c3ccc(N)cc3)cc2)no[n+]1[O-] [Compound 4j, (E)-4-((4-((2-(4-aminobenzoyl)hydrazono)methyl)phenoxy)methyl)-3-carbamoyl-1,2,5-oxadiazole 2-oxide]
IC50 [2]: 11.1 ± 0.1 µM
% NO2- (mol/mol) [3]: 12.7 ± 0.8 %
melting point: 209 to 214 °C
EC50 [5]: > 10 µM

NC(=O)N/N=C/c1ccc(OCc2no[n+]([O-])c2C(N)=O)cc1 [Compound 4n, (E)-3-carbamoyl-4-((4-((2-carbamoylhydrazono)methyl)phenoxy)methyl)-1,2,5-oxadiazole 2-oxide]
IC50 [2]: 13.7 ± 1.8 µM
% NO2- (mol/mol) [3]: 12.0 ± 1.4 %
melting point: 228 to 230 °C
EC50 [5]: > 10 µM

NC(=O)c1c(COc2ccc(/C=N/NC(N)=S)cc2)no[n+]1[O-] [Compound 4o, (E)-4-((4-((2-carbamothioylhydrazono)methyl)phenoxy)methyl)-3-carbamoyl-1,2,5-oxadiazole 2-oxide]
IC50 [2]: > 20 µM
% NO2- (mol/mol) [3]: 11.8 ± 1.2 %
melting point: 232 to 234 °C
EC50 [5]: > 10 µM

O=C(N/N=C/c1ccc(Oc2no[n+]([O-])c2S(=O)(=O)c2ccccc2)cc1)c1cccc(O)c1 [Lapdesf14e, (E)-4-(4-((2-(3-hydroxybenzoyl)hydrazono)methyl)phenoxy)-3-(phenylsulfonyl)-1,2,5-oxadiazole 2-oxide]
CC50 [6]: 208.3 ± 0.2 µM
% NO2- (mol/mol) [3]: 26% and 26.0 ± 1.6 %
decrease of parasite load (L. infantum [7]; 15 days, intraperitoneal): 50%
reduction of parasite load in the liver (L. infantum [7]): 54.2%
reduction of parasite load in the spleen (L. infantum [7]): 49.9%
toxic effects (L. infantum [7]): without toxic effects
IC50 [8]: 3.1 ± 0.4 µM
SI - Selective Index (CC50/EC50) [9]: 66.4
EC50 ([9]; read-out: EC50 L. infantum amastigote forms): 3.1 ± 0.1 µM

CCCCCCCCCCCCCCCCOP(=O)([O-])OCC[N+](C)(C)C [miltefosine, reference compound]
reduction of parasite burden in liver and spleen (L. infantum [1]): ~ 90%
plasma creatinine [4]: no alterations
plasma levels of AST, ALP, ALT, and creatinine [4]: similar
plasma total bilirubin levels [4]: no significant alterations
